# Tests used:
# [1] = Chronic delivery: continuous infusion of dye(s) by Alzet miniosmotic pump for fourteen days, drainage to lymph nodes (photographs, OPD substrate development, histology); assay type: in vivo, rat; conditions: 14 days, open ended catheter, tip became occluded
# Description: (§1) Animals. Male Lewis Inbred rats, six to eight weeks of age, were obtained from Charles River Laboratories and were acclimatized for five days before use. Animals were anesthetized with sodium pentobarbital before implants and dye injections.
# (§2) Dyes. Isosulfan blue, india ink, and goat anti rabbit horse radish peroxidase (HRP) were used.
# Chronic delivery. Alzet® miniosmotic pumps with a delivery rate of 0.25 or 0.5 microliter/hour (μl/hr) were used to continuously infuse dye(s) for fourteen days. The animals were sacrificed and a gross visual examination of the internal organs was performed to identify dye drainage into internal organs. Lymph nodes were collected, photographed, and analyzed as described in Table 1, below.
# [2] = Acute delivery: injection of tracking dye subcutaneously and above the IP wall, dye diffusion and gross visual examination of internal organs; assay type: in vivo, rat
# Experimental: as §1, §2
# Acute delivery. 40 microliters (μl) of isosulfan blue was injected subcutaneously and above the IP wall. The location of the injection was varied to detect the site which would drain into the para-aortic lymph nodes. Dye diffusion was monitored at five minutes and thirty minutes. The animals were then sacrificed and a gross visual examination of the internal organs was performed to identify dye drainage into internal organs.
smiles,measurement,setting,value
"CCN(CC)c1ccc(C(=C2C=CC(=[N+](CC)CC)C=C2)c2cc(S(=O)(=O)[O-])ccc2S(=O)(=O)[O-])cc1.[Na+] [isosulfan blue, Isosulfan blue]",dye in lymph nodes after chronic delivery,[1],not observed
same,dye diffusion after subcutaneous injection,"[2]; 40 μl, subcutaneous injection, 30 minutes",Minimal diffusion
same,staining of internal organs after subcutaneous injection,"[2]; injection site 1 cm above the hip joint, covered inguinal and popliteal beds",no internal organs being stained
same,dye diffusion after injection into the peritoneal wall,"[2]; peritoneal wall, one centimeter above the hip joint",minimal diffusion
same,staining of internal organs after peritoneal wall injection,"[2]; peritoneal wall, one centimeter above the hip joint, covered inguinal and popliteal beds",no internal organs being stained

# — patent US20070087029A1, “Localized delivery to the lymphatic system” (priority 2005, published 2007)
